In ChEMBL document CHEMBL4138292, “Metabolomics-Guided Discovery of Microginin Peptides from Cultures of the Cyanobacterium Microcystis aeruginosa” (J Nat Prod, 2018) one finds IC50 data, which are given here for three compounds.

As usually defined, the IC50 is the concentration needed to halve the response being measured.

Sequence of Angiotensin-converting enzyme (P12821 whole entry): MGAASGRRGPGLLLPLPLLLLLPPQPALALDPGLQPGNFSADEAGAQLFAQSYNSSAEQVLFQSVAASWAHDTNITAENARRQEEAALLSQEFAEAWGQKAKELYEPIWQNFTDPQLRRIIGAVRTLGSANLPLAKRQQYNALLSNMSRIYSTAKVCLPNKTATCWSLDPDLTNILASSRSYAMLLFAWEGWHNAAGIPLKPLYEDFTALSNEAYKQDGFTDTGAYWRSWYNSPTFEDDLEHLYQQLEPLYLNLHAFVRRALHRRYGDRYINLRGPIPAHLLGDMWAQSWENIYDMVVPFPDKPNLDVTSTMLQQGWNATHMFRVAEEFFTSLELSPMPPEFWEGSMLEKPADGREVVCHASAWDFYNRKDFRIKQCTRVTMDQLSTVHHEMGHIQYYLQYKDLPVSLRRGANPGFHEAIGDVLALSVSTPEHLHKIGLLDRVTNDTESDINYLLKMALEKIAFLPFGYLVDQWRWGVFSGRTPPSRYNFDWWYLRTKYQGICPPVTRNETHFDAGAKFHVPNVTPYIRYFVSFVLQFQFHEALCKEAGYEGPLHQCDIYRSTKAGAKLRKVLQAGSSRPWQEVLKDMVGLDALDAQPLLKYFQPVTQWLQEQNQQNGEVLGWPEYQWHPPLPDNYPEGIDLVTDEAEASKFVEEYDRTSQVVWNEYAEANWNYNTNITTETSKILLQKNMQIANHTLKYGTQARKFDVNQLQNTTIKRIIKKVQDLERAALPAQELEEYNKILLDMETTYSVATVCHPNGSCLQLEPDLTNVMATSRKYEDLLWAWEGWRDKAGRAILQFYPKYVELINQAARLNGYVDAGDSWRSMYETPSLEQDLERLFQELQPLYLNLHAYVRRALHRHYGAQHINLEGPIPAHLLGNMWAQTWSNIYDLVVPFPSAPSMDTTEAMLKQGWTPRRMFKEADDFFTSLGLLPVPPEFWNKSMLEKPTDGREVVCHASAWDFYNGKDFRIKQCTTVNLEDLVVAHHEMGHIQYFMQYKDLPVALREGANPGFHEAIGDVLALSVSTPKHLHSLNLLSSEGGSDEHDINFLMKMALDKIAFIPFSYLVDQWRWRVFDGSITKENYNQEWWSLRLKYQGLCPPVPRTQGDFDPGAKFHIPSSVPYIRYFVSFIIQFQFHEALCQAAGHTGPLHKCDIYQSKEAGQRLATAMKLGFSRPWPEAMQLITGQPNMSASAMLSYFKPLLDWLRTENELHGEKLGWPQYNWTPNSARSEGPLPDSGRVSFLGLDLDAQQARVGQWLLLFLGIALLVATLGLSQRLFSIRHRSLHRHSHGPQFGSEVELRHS

This test addresses Angiotensin-converting enzyme (Homo sapiens, UniProt P12821). Description: Inhibition of ACE (unknown origin) using hippuryl-L-histidyl-L-leucine as substrate preincubated with substrate for 30 mins followed by enzyme addition measured after 30 mins by LC/MS analysis.
`CCCCCCC[C@H](N)[C@H](O)C(=O)N(C)[C@@H](CC[S+](C)[O-])C(=O)N[C@@H](Cc1ccc(O)cc1)C(=O)O` (stereo partly drawn) displayed an IC50 of 31 µM.
Then `CCCCCCC[C@H](N)[C@H](O)C(=O)N[C@@H](C)C(=O)N[C@H](C(=O)O)C(C)C`, with 460 µM.
Then `O=C(O)CN(CCN(CC(=O)O)CC(=O)O)CC(=O)O` [EDETIC ACID], with 14 µM.
